ChEMBL document CHEMBL1134009, “The discovery of a potent, intracellular, orally bioavailable, long duration inhibitor of human neutrophil elastase--GW311616A a development candidate” (Bioorg Med Chem Lett, 2001)

Columns and labels:
[1] = Plasma clearance was measured in hamster at the dose of 10 mg/kg by peroral administration; format: ADME, organism-based, Cricetulus griseus; design: dose 10 mg/kg, route oral; details: chinese hamster, po, read-out: Clp
[2] = Half life of compound was determined in rat blood; format: ADME
[3] = Half life of compound was determined in dog blood; format: ADME, Canis lupus familiaris
Neutrophil elastase = biological target: T1, Neutrophil elastase (Homo sapiens, UniProt P08246); test: Inhibitory concentration against Elastase
T1 sequence (P08246 whole entry): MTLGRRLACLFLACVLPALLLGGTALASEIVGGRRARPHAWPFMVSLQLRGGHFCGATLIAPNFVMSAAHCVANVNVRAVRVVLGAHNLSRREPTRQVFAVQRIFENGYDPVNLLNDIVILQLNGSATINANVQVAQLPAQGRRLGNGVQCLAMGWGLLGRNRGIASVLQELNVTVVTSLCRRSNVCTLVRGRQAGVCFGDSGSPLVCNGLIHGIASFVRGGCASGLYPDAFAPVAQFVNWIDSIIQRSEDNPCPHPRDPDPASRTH

[4] = Half life of compound was determined in hamster blood; format: ADME, tissue-based, Cricetulus griseus; details: chinese hamster
[5] = Bioavailability in hamster was determined; format: ADME, organism-based, Cricetulus griseus; details: chinese hamster, in vivo
[6] = Plasma clearance was measured in hamster at the dose of 3 mg/kg by intravenous administration; format: ADME, organism-based, Cricetulus griseus; design: dose 3 mg/kg, route intravenous; details: chinese hamster, read-out: Clp
Cricetulus griseus [7] = test: Percent inhibition of intraneutrophil elastase in hamster bronchoalveolar lavage 6 hours after oral administration at a dose 2.2 mg/kg; format: organism-based; design: dose 2.2 mg/kg; details: Lung
[8] = Half life of compound was determined in human blood; format: ADME, tissue-based
Cricetulus griseus [9] = test: Percent inhibition of intraneutrophil elastase in hamster bronchoalveolar lavage at the dose 20 mg/kg 6 hours after oral administration.; format: organism-based; design: dose 20 mg/kg; details: Lung
Cricetulus griseus [10] = test: Percent inhibition of intraneutrophil elastase in hamster bronchoalveolar lavage 6 hours after oral administration at a dose of 0.73 mg/kg; format: organism-based; design: dose 0.73 mg/kg; details: Lung
Cricetulus griseus [11] = test: Percent inhibition of intraneutrophil elastase in hamster bronchoalveolar lavage 6 hours after oral administration at a dose of 2.2 mg/kg; format: organism-based; design: dose 2.2 mg/kg; details: Lung
Homo sapiens = organism: Homo sapiens; test: Residual elastase activity was evaluated after incubation with human whole blood for 30 min; format: functional; details: 0.5 h
[12] = Bioavailability in hamster at a dose of 3 mg/kg by oral administration; format: ADME, organism-based, Cricetulus griseus; details: chinese hamster, in vivo
[13] = Bioavailability in hamster at a dose of 3 mg/kg by […] administration; format: ADME, organism-based, Cricetulus griseus; details: chinese hamster, in vivo
Cricetulus griseus [14] = test: Percent inhibition of intraneutrophil elastase in hamster bronchoalveolar lavage 6 hours after oral administration at a dose of 20 mg/kg; format: organism-based; design: dose 20 mg/kg; details: Lung

SMILES	CL/F [1]	half-life [2]	half-life [3]	IC50 (Neutrophil elastase)	half-life [4]	bioavailability [5]	clearance [6]	inhibition (Cricetulus griseus [7])	half-life [8]	inhibition (Cricetulus griseus [9])	inhibition (Cricetulus griseus [10])	inhibition (Cricetulus griseus [11])	IC50 (Homo sapiens)	bioavailability [12]	bioavailability [13]	inhibition (Cricetulus griseus [14])
CC(C)[C@H]1C(=O)N(S(C)(=O)=O)[C@H]2CN(C(=O)CCN3CCCCC3)C[C@H]12.Cl	60 mL/min/kg	3.5 h	> 6 h	242 nM	> 6 h	70%	60 mL/min/kg	20%	> 6 h	88%	–	–	–	–	–	–
CC(C)[C@H]1C(=O)N(S(C)(=O)=O)[C@H]2CN(C(=O)/C=C/CN3CCCCC3)CC12 (stereo not given in full)	–	–	–	26 nM	–	–	–	–	–	–	33%	77%	1800 nM	–	–	–
CCC[C@H]1C(=O)N(S(C)(=O)=O)[C@H]2CN(C(=O)CCN3CCCCC3)C[C@H]12.Cl	140 mL/min/kg	0.3 h	3.5 h	120 nM	1.4 h	–	140 mL/min/kg	–	3.7 h	–	–	4%	–	49%	49%	75%
